Here are results for 1 compound from paper PMC3368905, “Inhibition of Ion Channels and Heart Beat in Drosophila by Selective COX-2 Inhibitor SC-791” (PLoS ONE, 2012).

Each structure is given as a SMILES string.

The experiment deals with T1, Shab channel (IKS, delayed rectifier, Drosophila Kv2) (Drosophila melanogaster, UniProt P17970).
T1 construct: native channel in larval body-wall muscles (fiber 12)
T1 sequence (P17970 1-1015): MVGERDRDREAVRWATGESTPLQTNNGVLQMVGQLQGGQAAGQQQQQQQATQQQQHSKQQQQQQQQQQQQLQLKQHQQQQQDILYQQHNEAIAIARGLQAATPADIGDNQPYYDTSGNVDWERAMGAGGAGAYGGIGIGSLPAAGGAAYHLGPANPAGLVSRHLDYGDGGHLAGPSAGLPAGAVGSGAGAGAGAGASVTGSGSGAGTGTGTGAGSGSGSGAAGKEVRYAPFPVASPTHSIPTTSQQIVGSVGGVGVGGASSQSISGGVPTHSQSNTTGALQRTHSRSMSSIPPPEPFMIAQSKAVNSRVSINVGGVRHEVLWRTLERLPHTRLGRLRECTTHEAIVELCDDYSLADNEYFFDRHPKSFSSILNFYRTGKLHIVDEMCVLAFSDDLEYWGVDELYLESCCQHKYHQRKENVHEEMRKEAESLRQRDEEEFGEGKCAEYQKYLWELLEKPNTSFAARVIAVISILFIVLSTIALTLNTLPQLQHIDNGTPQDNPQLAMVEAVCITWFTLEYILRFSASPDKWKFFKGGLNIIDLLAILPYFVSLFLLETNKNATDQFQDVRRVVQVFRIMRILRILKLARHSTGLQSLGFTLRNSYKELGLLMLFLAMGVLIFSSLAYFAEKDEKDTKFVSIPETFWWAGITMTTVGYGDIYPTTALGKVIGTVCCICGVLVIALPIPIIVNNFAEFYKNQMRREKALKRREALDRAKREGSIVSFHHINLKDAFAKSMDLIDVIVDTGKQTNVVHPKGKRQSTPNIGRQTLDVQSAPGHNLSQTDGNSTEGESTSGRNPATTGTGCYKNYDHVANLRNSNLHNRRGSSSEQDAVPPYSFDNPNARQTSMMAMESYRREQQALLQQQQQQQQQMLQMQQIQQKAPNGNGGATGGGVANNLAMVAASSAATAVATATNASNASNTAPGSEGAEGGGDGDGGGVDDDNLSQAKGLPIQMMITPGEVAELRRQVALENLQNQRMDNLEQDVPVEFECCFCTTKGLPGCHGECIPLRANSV
Kind of experiment: two-microelectrode voltage clamp of native IKS in larval muscle. Type of experiment: cell-based.

As usually defined, the IC50 is the midpoint of a concentration-inhibition curve. High values mean a need for much substance, low ones inhibition by little substance. In the case of `NS(=O)(=O)c1ccc(-c2c(-c3ccccc3)noc2C(F)F)cc1` [SC-791], the concentration for half-maximal inhibition (IC50) is 21 µM.
